# Laboratory results from US20060167050A1 (POOGER PROPERTIES LIMITED, priority 2002, published 2006).
# Columns and labels:
# ADHD patients = settings: versus 54% of ADHD cases with concomitant insomnia; cited from earlier work
# dopamine levels = settings: normal therapeutic doses; healthy, adult men; cited from earlier work
# [1] = tested on: patients with major depressive disorder; settings: cited from earlier work
# [2] = tested on: ADHD patients with insomnia disorders; assay: sleep induction by melatonin in ADHD patients with insomnia disorders first treated with methyl phenidate; format: in vivo, human; settings: pure melatonin 2.5 mg
# [3] = tested on: children with delayed sleep phase syndrome; settings: 2.5 to 7.5 mg PO once daily before expected bedtime; cited from earlier work
# [4] = tested on: patients who had been previously treated with methyl phenidate; settings: melatonin 3 mg; cited from earlier work
# ADHD = settings: in vivo; cited from earlier work
compound,measurement,setting,value
COC(=O)C(c1ccccc1)C1CCCCN1 (centres unmarked) [methylphenidate],problems relating to insomnia in treated ADHD patients,ADHD patients,64%
same,dopamine levels (PET),dopamine levels,increased their dopamine levels
"COc1ccc2[nH]cc(CCNC(C)=O)c2c1 [melatonin, N-acetyl-5-methoxytryptamine]",sleep quality scores,"[1]; concomitant slow-release melatonin at 9 pm versus fluoxetine alone, 4 weeks",significantly improved sleep quality scores
same,need for additional sleep medications,[1]; concomitant slow-release melatonin with fluoxetine,avoided the need for additional sleep medications
same,activity as a sleep-inducing agent,[2],active as a sleep-inducing agent
same,average onset of sleep after melatonin administration,[3],≤ 1 h
same,time for insomnia,[4],significant reduction in the time for insomnia
Clc1cccc(Cl)c1N=C1NCCN1 [clonidine],efficacy in treating ADHD,ADHD,effective in treating ADHD
